According to ChEMBL document CHEMBL4251597, “Discovery and evolution of aloperine derivatives as a new family of HCV inhibitors with novel mechanism” (Eur J Med Chem, 2018):
pEC50: −log10 of the molar value. Activity calls are given as the source filed them. The calls are words filed in the database; no cut-off is given here.

Key:
Hepatitis C virus [1] = assay: Antiviral activity against HCV J6/JFH/JC-1 infected in human Huh7.5 cells assessed as inhibition of NS3/4A D168V mutant levels at 0.01 to 1 uM treated with fresh media containing compound every 2 days by Western blot method; format: functional, organism-based; conditions: Hepacivirus hominis
Hepatitis C virus [2] = assay: Antiviral activity against HCV J6/JFH/JC-1 infected in human Huh7.5 cells harboring NS3/4A D168V mutant assessed as inhibition of viral core protein levels at 0.01 to 1 uM treated with fresh media containing compound every 2 days by Western blot method; format: functional, organism-based; conditions: Hepacivirus hominis
Hepatitis C virus [3] = assay: Antiviral activity against HCV J6/JFH/JC-1 infected in human Huh7.5 cells assessed as inhibition of NS3/4A levels at 10 uM treated with fresh media containing compound every 2 days in presence of NS5A inhibitor daclatasvir by Western blot method; format: functional, organism-based; conditions: Hepacivirus hominis
Hepatitis C virus [4] = assay: Antiviral activity against HCV J6/JFH/JC-1 infected in human Huh7.5 cells assessed as inhibition of NS3/4A levels at 10 uM treated with fresh media containing compound every 2 days in presence of NS5B inhibitor sofosbuvir by Western blot method; format: functional, organism-based; conditions: Hepacivirus hominis
Hepatitis C virus [5] = assay: Antiviral activity against HCV J6/JFH/JC-1 infected in human Huh7.5 cells assessed as inhibition of viral core protein levels at 20 uM incubated for 2 to 24 hrs measured within 72 hrs by Western blot method; format: functional, organism-based; conditions: Hepacivirus hominis
Hepatitis C virus [6] = assay: Antiviral activity against HCV J6/JFH/JC-1 infected in human Huh7.5 cells assessed as inhibition of viral core protein levels at 10 uM treated with fresh media containing compound every 2 days in presence of NS5B inhibitor sofosbuvir by Western blot method; format: functional, organism-based; conditions: Hepacivirus hominis
Hepatitis C virus [7] = assay: Antiviral activity against HCV J6/JFH/JC-1 infected in human Huh7.5 cells assessed as inhibition of NS3/4A S282T mutant levels at 20 uM treated with fresh media containing compound every 2 days by Western blot method; format: functional, organism-based; conditions: Hepacivirus hominis
Hepatitis C virus [8] = assay: Antiviral activity against HCV infected in human GS4.3 cells assessed as inhibition of NS3/4A levels at 20 uM treated with fresh media containing compound every 2 days measured after 6 days by Western blot method; format: functional, organism-based; conditions: Hepacivirus hominis
Hepatitis C virus [9] = assay: Antiviral activity against 22.5 to 90 IU/cell of HCV J6/JFH/JC-1 infected in human Huh7.5 cells assessed as inhibition of viral core protein levels at 20 uM treated with fresh media containing compound every 2 days by Western blot method; format: functional, organism-based; conditions: Hepacivirus hominis
Hepatitis C virus [10] = assay: Antiviral activity against HCV infected in human GS4.3 cells assessed as inhibition of viral core protein levels at 20 uM treated with fresh media containing compound every 2 days measured after 6 days by Western blot method; format: functional, organism-based; conditions: Hepacivirus hominis
Hepatitis C virus [11] = assay: Antiviral activity against HCV J6/JFH/JC-1 infected in human Huh7.5 cells assessed as inhibition of viral core protein levels at 10 uM treated with fresh media containing compound every 2 days in presence of NS3/4A inhibitor simeprevir by Western blot method; format: functional, organism-based; conditions: Hepacivirus hominis
Hepatitis C virus [12] = assay: Antiviral activity against HCV J6/JFH/JC-1 infected in human Huh7.5 cells assessed as inhibition of NS3/4A A156T mutant levels at 20 uM treated with fresh media containing compound every 2 days by Western blot method; format: functional, organism-based; conditions: Hepacivirus hominis
Hepatitis C virus [13] = assay: Antiviral activity against HCV J6/JFH/JC-1 infected in human Huh7.5 cells assessed as inhibition of NS3/4A protein levels at 0.5 uM by Western blot method; format: functional, organism-based; conditions: Hepacivirus hominis, TDE = time-dependent effect
Hepatitis C virus [14] = assay: Antiviral activity against HCV J6/JFH/JC-1 infected in human Huh7.5 cells assessed as inhibition of NS3/4A levels at 10 uM treated with fresh media containing compound every 2 days in presence of NS3/4A inhibitor simeprevir by Western blot method; format: functional, organism-based; conditions: Hepacivirus hominis
Hepatitis C virus [15] = assay: Antiviral activity against HCV J6/JFH/JC-1 infected in human Huh7.5 cells assessed as inhibition of viral core protein levels at 20 uM preincubated for 2 hrs followed addition of Huh7.5 cells for 4 hrs measured within 72 hrs by Western blot method; format: functional, organism-based; conditions: Hepacivirus hominis
Hepatitis C virus [16] = assay: Antiviral activity against 22.5 to 90 IU/cell of HCV J6/JFH/JC-1 infected in human Huh7.5 cells assessed as inhibition of NS3/4A levels at 20 uM treated with fresh media containing compound every 2 days by Western blot method; format: functional, organism-based; conditions: Hepacivirus hominis
Hepatitis C virus [17] = assay: Antiviral activity against HCV J6/JFH/JC-1 infected in human Huh7.5 cells assessed as inhibition of NS3/4A levels at 20 uM incubated for 2 to 24 hrs measured within 72 hrs by Western blot method; format: functional, organism-based; conditions: Hepacivirus hominis
Hepatitis C virus [18] = assay: Antiviral activity against HCV J6/JFH/JC-1 infected in human Huh7.5 cells assessed as inhibition of viral RNA replication after 72 hrs by qRT-PCR method; format: functional, organism-based, Hepacivirus hominis; conditions: J6/JFH/JC-1, Huh7.5, 72 h
Hepatitis C virus [19] = assay: Antiviral activity against HCV J6/JFH/JC-1 infected in human Huh7.5 cells harboring NS3/4A D168V mutant assessed as inhibition of viral core protein levels at 20 uM treated with fresh media containing compound every 2 days by Western blot method; format: functional, organism-based; conditions: Hepacivirus hominis
[20] = Selectivity index, ratio of CC50 for human Huh7.5 cells to EC50 for HCV J6/JFH/JC-1; format: toxicity; conditions: read-out: Ratio CC50/EC50
Hepatitis C virus [21] = assay: Antiviral activity against HCV J6/JFH/JC-1 infected in human Huh7.5 cells assessed as inhibition of viral core protein levels at 10 uM treated with fresh media containing compound every 2 days in presence of NS5A inhibitor daclatasvir by Western blot method; format: functional, organism-based; conditions: Hepacivirus hominis
[22] = Tmax in mouse at 25 mg/kg, po after 0.25 to 6 hrs; format: ADME, organism-based; conditions: in vivo
[23] = Cytotoxicity against human Huh7.5 cells after 72 hrs by MTT assay; format: cell-based
Hepatitis C virus [24] = assay: Antiviral activity against HCV J6/JFH/JC-1 infected in human Huh7.5 cells assessed as inhibition of viral core protein levels after 72 hrs by Western blot method; format: functional, organism-based; conditions: Hepacivirus hominis
Hepatitis C virus [25] = assay: Antiviral activity against HCV J6/JFH/JC-1 infected in human Huh7.5 cells assessed as inhibition of NS3/4A levels at 20 uM preincubated for 2 hrs followed addition of Huh7.5 cells for 4 hrs measured within 72 hrs by Western blot method; format: functional, organism-based; conditions: Hepacivirus hominis
[26] = molecular target: Hepatitis C virus serine protease, NS3/NS4A (Hepatitis C virus) (UniProt D2K2A8+A3EZI9); assay: Inhibition of HCV NS3/4A protease at 200 uM; format: protein-complex assay; conditions: Hepacivirus hominis
[27] = AUC (0 to t) in mouse at 25 mg/kg, po after 0.25 to 6 hrs; format: ADME, organism-based; set-up: time upper 6 hr, time lower 0.25 hr, dose 25 mg/kg, route oral; conditions: in vivo
Hepatitis C virus [28] = assay: Antiviral activity against HCV J6/JFH/JC-1 infected in human Huh7.5 cells assessed as inhibition of viral core protein levels at 0.5 uM by Western blot method; format: functional, organism-based; conditions: Hepacivirus hominis, TDE = time-dependent effect
Hepatitis C virus [29] = assay: Antiviral activity against HCV J6/JFH/JC-1 infected in human Huh7.5 cells harboring […] S282T mutant assessed as inhibition of viral core protein levels at 20 uM treated with fresh media containing compound every 2 days by Western blot method; format: functional, organism-based; conditions: Hepacivirus hominis
[30] = Acute toxicity in po dosed Kunming mouse measured for 7 days; format: organism-based; conditions: in vivo
[31] = Cmax in mouse at 25 mg/kg, po after 0.25 to 6 hrs; format: ADME, organism-based; set-up: dose 25 mg/kg, route oral; conditions: in vivo
Hepatitis C virus [32] = assay: Antiviral activity against HCV J6/JFH/JC-1 infected in human Huh7.5 cells harboring NS3/4A A156T mutant assessed as inhibition of viral core protein levels at 20 uM treated with fresh media containing compound every 2 days by Western blot method; format: functional, organism-based; conditions: Hepacivirus hominis
Hepatitis C virus [33] = assay: Antiviral activity against HCV J6/JFH/JC-1 infected in human Huh7.5 cells assessed as inhibition of NS3/4A levels after 72 hrs by Western blot method; format: functional, organism-based; conditions: Hepacivirus hominis
[34] = MRT in mouse at 25 mg/kg, po after 0.25 to 6 hrs; format: ADME, organism-based; conditions: in vivo
[35] = Half life in mouse at 25 mg/kg, po after 0.25 to 6 hrs; format: ADME, organism-based; conditions: in vivo
Hepatitis C virus [36] = assay: Antiviral activity against HCV J6/JFH/JC-1 infected in human Huh7.5 cells assessed as inhibition of NS3/4A D168V mutant levels at 20 uM treated with fresh media containing compound every 2 days by Western blot method; format: functional, organism-based; conditions: Hepacivirus hominis
Hepatitis C virus [37] = assay: Antiviral activity against HCV infected in human GS4.3 cells assessed as inhibition of NS3/4A levels at 0.5 uM treated with fresh media containing compound every 2 days measured after 6 days by Western blot method; format: functional, organism-based; conditions: Hepacivirus hominis
Hepatitis C virus [38] = assay: Antiviral activity against HCV J6/JFH/JC-1 infected in human Huh7.5 cells assessed as inhibition of viral core protein levels at 0.05 uM preincubated for 2 hrs followed by centrifugation for 4 hrs and subsequent addition of Huh7.5 cells measured within 72 hrs by Western blot method; format: functional, organism-based; conditions: Hepacivirus hominis
Hepatitis C virus [39] = assay: Antiviral activity against HCV J6/JFH/JC-1 infected in human Huh7.5 cells assessed as inhibition of NS3/4A levels at 0.05 uM preincubated for 2 hrs followed addition of Huh7.5 cells for 4 hrs measured within 72 hrs by Western blot method; format: functional, organism-based; conditions: Hepacivirus hominis
Hepatitis C virus [40] = assay: Antiviral activity against HCV J6/JFH/JC-1 infected in human Huh7.5 cells harboring NS3/4A A156T mutant assessed as inhibition of viral core protein levels at 0.01 to 1 uM treated with fresh media containing compound every 2 days by Western blot method; format: functional, organism-based; conditions: Hepacivirus hominis
Hepatitis C virus [41] = assay: Antiviral activity against HCV J6/JFH/JC-1 infected in human Huh7.5 cells assessed as inhibition of NS3/4A A156T mutant levels at 0.01 to 1 uM treated with fresh media containing compound every 2 days by Western blot method; format: functional, organism-based; conditions: Hepacivirus hominis
Hepatitis C virus [42] = assay: Antiviral activity against HCV J6/JFH/JC-1 infected in human Huh7.5 cells assessed as inhibition of viral core protein levels at 0.05 uM preincubated for 2 hrs followed addition of Huh7.5 cells for 4 hrs measured within 72 hrs by Western blot method; format: functional, organism-based; conditions: Hepacivirus hominis
Hepatitis C virus [43] = assay: Antiviral activity against HCV infected in human GS4.3 cells assessed as inhibition of viral core protein levels at 0.5 uM treated with fresh media containing compound every 2 days measured after 6 days by Western blot method; format: functional, organism-based; conditions: Hepacivirus hominis
Hepatitis C virus [44] = assay: Antiviral activity against HCV J6/JFH/JC-1 infected in human Huh7.5 cells assessed as inhibition of NS3/4A levels at 0.05 uM preincubated for 2 hrs followed by centrifugation for 4 hrs and subsequent addition of Huh7.5 cells measured within 72 hrs by Western blot method; format: functional, organism-based; conditions: Hepacivirus hominis

## COc1ccc2c(O[C@@H]3C[C@H]4C(=O)N[C@]5(C(=O)NS(=O)(=O)C6CC6)C[C@H]5/C=C/CCCCN(C)C(=O)[C@@H]4C3)cc(-c3nc(C(C)C)cs3)nc2c1C
Hepatitis C virus [1]
  inhibition: inactive
Hepatitis C virus [2]
  inhibition: inactive

## CN1CCN(S(=O)(=O)N2CCCC3=C[C@H]4C[C@H](CN5CCCC[C@H]45)[C@@H]32)CC1
Hepatitis C virus [3]
  inhibition: Active
Hepatitis C virus [4]
  inhibition: Active
Hepatitis C virus [5]
  inhibition: Active
Hepatitis C virus [6]
  inhibition: Active
Hepatitis C virus [7]
  inhibition: Active
Hepatitis C virus [8]
  inhibition: Active
Hepatitis C virus [9]
  inhibition: Active
Hepatitis C virus [10]
  inhibition: Active
Hepatitis C virus [11]
  inhibition: Active
Hepatitis C virus [12]
  inhibition: Active
Hepatitis C virus [13]
  inhibition: Tde
Hepatitis C virus [14]
  inhibition: Active
Hepatitis C virus [15]
  inhibition: Active
Hepatitis C virus [16]
  inhibition: Active
Hepatitis C virus [17]
  inhibition: Active
Hepatitis C virus [18]
  pEC50: 5.45
Hepatitis C virus [19]
  inhibition: Active
[20]
  selectivity ratio: > 140
Hepatitis C virus [21]
  inhibition: Active
[22]
  Tmax: 1 h
[23]
  CC50 at 72 h: > 500 µM
Hepatitis C virus [24]
  inhibition: Dose-dependent effect
Hepatitis C virus [25]
  inhibition: Active
[26]
  inhibition: inactive
[27]
  AUC(0-t): 7.6 µM·h
Hepatitis C virus [28]
  inhibition: Tde
Hepatitis C virus [29]
  inhibition: Active
[30]
  LD50 at 168 h: > 1000 mg/kg
[31]
  Cmax: 1.37 µM
Hepatitis C virus [32]
  inhibition: Active
Hepatitis C virus [33]
  inhibition: Dose-dependent effect
[34]
  MRT: 6.11 h
[35]
  half-life: 9.47 h
Hepatitis C virus [36]
  inhibition: Active

## CCC[C@H](NC(=O)[C@@H]1[C@H]2CCC[C@H]2CN1C(=O)[C@@H](NC(=O)[C@@H](NC(=O)c1cnccn1)C1CCCCC1)C(C)(C)C)C(=O)C(=O)NC1CC1 [TELAPREVIR]
Hepatitis C virus [37]
  inhibition: Active
Hepatitis C virus [38]
  inhibition: inactive
Hepatitis C virus [13]
  inhibition: Tde
Hepatitis C virus [39]
  inhibition: Active
Hepatitis C virus [18]
  pEC50: 7.52
[20]
  selectivity ratio: 840
Hepatitis C virus [40]
  inhibition: inactive
Hepatitis C virus [41]
  inhibition: inactive
Hepatitis C virus [42]
  inhibition: Active
Hepatitis C virus [43]
  inhibition: Active
[23]
  CC50 at 72 h: 25.2 µM
Hepatitis C virus [28]
  inhibition: Tde
Hepatitis C virus [44]
  inhibition: inactive
